# Data reported in patent US20220144812A1, “QUINOLINE DERIVATIVES AND THEIR USE FOR THE TREATMENT OF CANCER” (Epizyme, Inc., priority 2019, published 2022).
# Where two headings read alike, the source gives them in different places.
# Tests used:
# [1] = system: 647V cells; test: High throughput proliferation (HTP) assay; format: cell-based; details: high throughput proliferation, read-out: CREBBP HTP IC50
# Description: The following example describes methods and materials relating to a high throughput proliferation (HTP) assay. IC50 values (micromolar) are summarized in Table 1, Table 2, and Table 3 under the column labeled: “CREBBP HTP IC50 (micromolar).”
# MATERIALS: 647V cell line, Dulbecco's MEM, penicillin-streptomycin, heat inactivated fetal bovine serum, D-PBS, and CellTiter-Glo were commercially available.
# 647V adherent cells were maintained in complete growth medium (Dulbecco's MEM supplemented with 15% v/v heat inactivated fetal bovine serum) and cultured at 37° C. under 5% CO2.
# METHOD: Measurement of the effect of compound in High Throughput Proliferation (HTP) assays was performed as follows: Exponentially growing 647V cells were plated, in triplicate, in 384-well plates at the appropriate cell density in a final volume of 50 μl. Cells were incubated in the presence of increasing concentrations of compound. Viable cell number was determined at day 7 by addition of 35 μl CellTiter-Glo to each well of the plate, incubated in the dark for 30 minutes, and read on a PerkinElmer EnVision instrument to enumerate the number of cells.
# [2] = target: T1, EP300 (P300(1048-1664)) (Homo sapiens, UniProt Q09472); test: Biochemical assay for EP300, SAMDI; details: EP300, SAMDI; read-out: EP300 Biochemistry IC50
# T1 construct: P300(1048-1664)
# T1 sequence (Q09472 1048-1664): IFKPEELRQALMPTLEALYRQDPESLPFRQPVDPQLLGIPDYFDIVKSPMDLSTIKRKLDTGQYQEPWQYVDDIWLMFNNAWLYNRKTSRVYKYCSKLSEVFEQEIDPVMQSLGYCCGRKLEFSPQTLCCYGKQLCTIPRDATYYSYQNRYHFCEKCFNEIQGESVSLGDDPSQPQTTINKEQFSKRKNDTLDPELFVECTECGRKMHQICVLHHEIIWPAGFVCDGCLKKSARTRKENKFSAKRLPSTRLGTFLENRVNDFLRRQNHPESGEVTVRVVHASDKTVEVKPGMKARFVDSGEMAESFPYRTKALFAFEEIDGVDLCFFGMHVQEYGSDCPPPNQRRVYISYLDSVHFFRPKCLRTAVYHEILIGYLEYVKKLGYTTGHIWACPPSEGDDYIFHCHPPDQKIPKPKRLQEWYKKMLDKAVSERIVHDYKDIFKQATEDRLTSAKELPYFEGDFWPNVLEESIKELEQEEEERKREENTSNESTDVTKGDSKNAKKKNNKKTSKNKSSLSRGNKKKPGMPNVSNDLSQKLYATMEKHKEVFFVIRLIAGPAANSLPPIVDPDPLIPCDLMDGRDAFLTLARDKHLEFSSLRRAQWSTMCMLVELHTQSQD
# Description: The following example describes materials and methods relating to a biochemical assay for EP300. IC50 values (micromolar (μM)) are summarized in Table 1, Table 2, and Table 3 under the column labeled: “EP300 Biochemistry IC50 (micromolar).”
# [3] = system: H3K18Ac in HB-CLS-2 cells; test: H3K18AC in-cell western (ICW) assay; format: cell-based; details: H3K18Ac in-cell western; read-out: CREBBP ICW IC50
# How it was run: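 HB-CLS-2 cells seeded 16–24 hours before 2 hr compound treatment at 37° C, 5% CO2, then methanol-fixed. H3K18Ac detected with rabbit monoclonal primary (overnight, 4° C) and 800CW anti-rabbit secondary; DRAQ5 stained DNA. Plates imaged at 700 and 800 nm for integrated intensity; IC50 in μM.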
# [4] = target: T2, CREBBP (1084-1701) (Homo sapiens, UniProt Q92793); test: Biochemical assay for CREBBP (1084-1701), SAMDI; details: SAMDI, read-out: CREBBP Biochemistry IC50
# T2 construct: measured in the following biochemical assay using CREBBP (1084-1701); purchased
# T2 sequence (Q92793 1084-1701): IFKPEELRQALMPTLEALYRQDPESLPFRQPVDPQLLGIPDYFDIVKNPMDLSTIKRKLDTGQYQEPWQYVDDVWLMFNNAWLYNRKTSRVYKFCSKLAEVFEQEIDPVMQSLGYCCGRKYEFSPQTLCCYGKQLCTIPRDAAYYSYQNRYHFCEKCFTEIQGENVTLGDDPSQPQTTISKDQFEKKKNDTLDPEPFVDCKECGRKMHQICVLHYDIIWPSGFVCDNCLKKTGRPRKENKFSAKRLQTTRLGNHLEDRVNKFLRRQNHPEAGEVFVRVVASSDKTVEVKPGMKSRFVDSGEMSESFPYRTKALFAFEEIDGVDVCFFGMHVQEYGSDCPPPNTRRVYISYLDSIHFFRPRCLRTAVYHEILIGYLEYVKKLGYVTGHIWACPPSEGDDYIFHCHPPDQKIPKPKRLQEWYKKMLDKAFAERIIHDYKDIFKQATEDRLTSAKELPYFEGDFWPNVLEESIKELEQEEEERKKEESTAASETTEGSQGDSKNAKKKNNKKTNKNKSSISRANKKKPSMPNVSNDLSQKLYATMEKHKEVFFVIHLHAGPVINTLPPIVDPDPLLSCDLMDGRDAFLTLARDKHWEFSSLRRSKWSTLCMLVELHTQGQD
# How it was run: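 CREBBP (1084-1701) preincubated with compound 30 min at RT, then substrate mix (biotin-H3 11-25 K14R/K23R peptide, acetyl-CoA) added for 30 min at RT. Reaction stopped with formic acid, neutralised with sodium bicarbonate. Peptide acetylation read by SAMDI mass spectrometry to derive IC50.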
Structure (SMILES),"IC50 ([1]; Homo sapiens, 647-V) [nM]",IC50 [2] [nM],IC50 [3] [nM],IC50 [4] [nM],IC50 [1] [nM]
CCn1ncc(CN(C)C(=O)c2nc(-c3cc4[nH]ncc4cc3C)nc3ccc(Cl)cc23)c1C [Compound 10],77,8.4,93,22,
CCn1ncc(CN(C)C(=O)c2nc(-c3cc(Cl)cc(NCCNC)c3)nc3ccc(Cl)cc23)c1C [Compound 12],32,3.5,110,13,
CCn1ncc(CN(C)C(=O)c2nc(-c3cc(C)cc(NC(=O)CNC)c3)nc3ccc(Cl)cc23)c1C [Compound 13],110,7.7,120,10,
CCn1ncc(CN(C)C(=O)c2nc(-c3cc(Cl)cc(NCCNC)c3)nc3ccc(Cl)cc23)c1C [Compound 14],,2.9,140,14,39
CCn1ncc(CN(C)C(=O)c2nc(-c3ccc(OCC(O)CN4CCCC4)cc3Cl)nc3ccc(Cl)cc23)c1C (centres unmarked) [Compound 15],64,12,150,28,
CCn1ncc(CN(C)C(=O)c2nc(-c3cc(N)cc(Cl)c3)nc3ccc(Cl)cc23)c1C [Compound 16],160,7.4,150,4.6,
CCn1ncc(CN(C)C(=O)c2nc(-c3cc4[nH]cnc4cc3C)nc3ccc(Cl)cc23)c1C [Compound 17],130,120,170,60,
CCn1ncc(CN(C)C(=O)c2nc(-c3cc(C(=O)NC)n(C)n3)nc3ccc(Cl)cc23)c1C [Compound 18],220,10,170,23,
CCn1ncc(CN(C)C(=O)c2nc(-c3ccc(OCC(O)CNC)cc3Cl)nc3ccc(Cl)cc23)c1C (centres unmarked) [Compound 20],71,10,180,27,
CCn1ncc(CN(C)C(=O)c2nc(-c3ccc(OCCNC)c(Cl)c3)nc3ccc(Cl)cc23)c1C [Compound 21],120,48,180,31,
CCn1ncc(CN(C)C(=O)c2nc(-c3cc(Cl)c4c[nH]nc4c3)nc3ccc(COC)cc23)c1C [Compound 22],210,14,180,14,
CCn1ncc(CN(C)C(=O)c2nc(-c3ccc(OCCNC)cc3Cl)nc3ccc(Cl)cc23)c1C [Compound 23],82,50,190,46,
CCn1ncc(CN(C)C(=O)c2nc(-c3ccc(OCC(O)CNC)c(Cl)c3)nc3ccc(Cl)cc23)c1C (centres unmarked) [Compound 25],76,33,210,27,
CCn1ncc(CN(C)C(=O)c2nc(-c3cc4nc[nH]c4cc3Cl)nc3ccc(Cl)cc23)c1C [Compound 26],130,170,210,84,
CCn1ncc(CN(C)C(=O)c2nc(-c3ccc(OCC(O)CN4CCCC4)c(Cl)c3)nc3ccc(Cl)cc23)c1C (centres unmarked) [Compound 27],110,20,220,39,
CCn1ncc(CN(C)C(=O)c2nc(-c3cc(C)nc(N)c3)nc3ccc(Cl)cc23)c1C [Compound 28],180,92,220,29,
CCn1ncc(CN(C)C(=O)c2cc(-c3ccc(NCCNC)cn3)nc3ccc(Cl)cc23)c1C [Compound 30],310,12,230,56,
